Laboratory results as given in PubChem BioAssay (NCI).
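Where inhibition never reached the appropriate level, the endpoint shown equals the highest concentration tested. Otherwise, values were interpolated linearly from a five-concentration, 48-hour dose response in 96-well plates. GI50 is the concentration that inhibits growth by half. TGI is the concentration that stops growth completely.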

How the values were obtained:
Experiment in all cases: DTP human tumour cell line panel, 48 h
786-0 renal = tested on: 786-0 renal
A498 renal = tested on: A498 renal
A549 NSCLC = tested on: A549 NSCLC
ACHN renal = tested on: ACHN renal
BT-549 breast = tested on: BT-549 breast
CAKI-1 renal = tested on: CAKI-1 renal
CCRF-CEM leukemia = tested on: CCRF-CEM leukemia
COLO 205 colon = tested on: COLO 205 colon
DU-145 prostate = tested on: DU-145 prostate
EKVX NSCLC = tested on: EKVX NSCLC
HCC-2998 colon = tested on: HCC-2998 colon
HCT-116 colon = tested on: HCT-116 colon
HCT-15 colon = tested on: HCT-15 colon
HL-60(TB) leukemia = tested on: HL-60(TB) leukemia
HOP-62 NSCLC = tested on: HOP-62 NSCLC
HOP-92 NSCLC = tested on: HOP-92 NSCLC
HS 578T breast = tested on: HS 578T breast
HT29 colon = tested on: HT29 colon
IGROV1 ovarian = tested on: IGROV1 ovarian
K-562 leukemia = tested on: K-562 leukemia
KM12 colon = tested on: KM12 colon
LOX IMVI melanoma = tested on: LOX IMVI melanoma
M14 melanoma = tested on: M14 melanoma
MALME-3M melanoma = tested on: MALME-3M melanoma
MCF7 breast = tested on: MCF7 breast
MDA-MB-231 breast = tested on: MDA-MB-231 breast
MDA-MB-435 = tested on: MDA-MB-435
MOLT-4 leukemia = tested on: MOLT-4 leukemia
NCI-H226 lung = tested on: NCI-H226 lung
NCI-H23 lung = tested on: NCI-H23 lung
NCI-H460 lung = tested on: NCI-H460 lung
NCI-H522 lung = tested on: NCI-H522 lung
NCI/ADR-RES ovarian = tested on: NCI/ADR-RES ovarian
OVCAR-3 ovarian = tested on: OVCAR-3 ovarian
OVCAR-4 ovarian = tested on: OVCAR-4 ovarian
OVCAR-5 ovarian = tested on: OVCAR-5 ovarian
OVCAR-8 ovarian = tested on: OVCAR-8 ovarian
PC-3 prostate = tested on: PC-3 prostate
RPMI-8226 leukemia = tested on: RPMI-8226 leukemia
RXF 393 renal = tested on: RXF 393 renal
SF-268 CNS = tested on: SF-268 CNS
SF-295 CNS = tested on: SF-295 CNS
SF-539 CNS = tested on: SF-539 CNS
SK-MEL-2 melanoma = tested on: SK-MEL-2 melanoma
SK-MEL-28 melanoma = tested on: SK-MEL-28 melanoma
SK-MEL-5 melanoma = tested on: SK-MEL-5 melanoma
SK-OV-3 ovarian = tested on: SK-OV-3 ovarian
SN12C renal = tested on: SN12C renal
SNB-19 CNS = tested on: SNB-19 CNS
SNB-75 CNS = tested on: SNB-75 CNS
SR leukemia = tested on: SR leukemia
SW-620 colon = tested on: SW-620 colon
T-47D breast = tested on: T-47D breast
TK-10 renal = tested on: TK-10 renal
U251 CNS = tested on: U251 CNS
UACC-257 melanoma = tested on: UACC-257 melanoma
UACC-62 melanoma = tested on: UACC-62 melanoma
UO-31 renal = tested on: UO-31 renal

SMILES: Cc1ccc2c(n1)C(=O)C(Cl)=C(Nc1ccc(C#N)cc1)C2=O
- GI50 (786-0 renal): 1.74 µM
- TGI (786-0 renal): 3.24 µM
- GI50 (A498 renal): 16.3 µM
- TGI (A498 renal): > 100 µM
- GI50 (A549 NSCLC): 35.6 µM
- TGI (A549 NSCLC): > 100 µM
- GI50 (ACHN renal): 1.81 µM
- TGI (ACHN renal): 3.3 µM
- GI50 (BT-549 breast): 2.8 µM
- TGI (BT-549 breast): 12 µM
- GI50 (CAKI-1 renal): 1.7 µM
- TGI (CAKI-1 renal): 3.31 µM
- GI50 (CCRF-CEM leukemia): 0.358 µM
- TGI (CCRF-CEM leukemia): 2.2 µM
- GI50 (COLO 205 colon): 1.66 µM
- TGI (COLO 205 colon): 3.51 µM
- GI50 (DU-145 prostate): 2.13 µM
- TGI (DU-145 prostate): 4.48 µM
- GI50 (EKVX NSCLC): 2.19 µM
- TGI (EKVX NSCLC): 5.59 µM
- GI50 (HCC-2998 colon): 3.83 µM
- TGI (HCC-2998 colon): 16.1 µM
- GI50 (HCT-116 colon): 1.83 µM
- TGI (HCT-116 colon): 3.78 µM
- GI50 (HCT-15 colon): 1.74 µM
- TGI (HCT-15 colon): 3.66 µM
- GI50 (HL-60(TB) leukemia): 1.08 µM
- TGI (HL-60(TB) leukemia): 3.05 µM
- GI50 (HOP-62 NSCLC): 17.9 µM
- TGI (HOP-62 NSCLC): 50.7 µM
- GI50 (HOP-92 NSCLC): 1.71 µM
- TGI (HOP-92 NSCLC): 3.41 µM
- GI50 (HS 578T breast): 14.6 µM
- TGI (HS 578T breast): 56.1 µM
- GI50 (HT29 colon): 3.06 µM
- TGI (HT29 colon): 10.6 µM
- GI50 (IGROV1 ovarian): 10.7 µM
- TGI (IGROV1 ovarian): 24.7 µM
- GI50 (K-562 leukemia): 0.351 µM
- TGI (K-562 leukemia): 1.87 µM
- GI50 (KM12 colon): 19.9 µM
- TGI (KM12 colon): > 100 µM
- GI50 (LOX IMVI melanoma): 1.53 µM
- TGI (LOX IMVI melanoma): 3.46 µM
- GI50 (M14 melanoma): 6.12 µM
- TGI (M14 melanoma): 21.9 µM
- GI50 (MALME-3M melanoma): 1.74 µM
- TGI (MALME-3M melanoma): 3.36 µM
- GI50 (MCF7 breast): 1.9 µM
- TGI (MCF7 breast): 4.62 µM
- GI50 (MDA-MB-231 breast): 5.59 µM
- TGI (MDA-MB-231 breast): 25.8 µM
- GI50 (MDA-MB-435): 6.99 µM
- TGI (MDA-MB-435): 22.7 µM
- GI50 (MOLT-4 leukemia): 0.47 µM
- TGI (MOLT-4 leukemia): 2.56 µM
- GI50 (NCI-H226 lung): 4.36 µM
- TGI (NCI-H226 lung): 17.6 µM
- GI50 (NCI-H23 lung): 1.84 µM
- TGI (NCI-H23 lung): 4.58 µM
- GI50 (NCI-H460 lung): 30.2 µM
- TGI (NCI-H460 lung): > 100 µM
- GI50 (NCI-H522 lung): 1.75 µM
- TGI (NCI-H522 lung): 3.75 µM
- GI50 (NCI/ADR-RES ovarian): 3.55 µM
- TGI (NCI/ADR-RES ovarian): 17.7 µM
- GI50 (OVCAR-3 ovarian): 1.84 µM
- TGI (OVCAR-3 ovarian): 3.51 µM
- GI50 (OVCAR-4 ovarian): 1.59 µM
- TGI (OVCAR-4 ovarian): 3.08 µM
- GI50 (OVCAR-5 ovarian): 17.7 µM
- TGI (OVCAR-5 ovarian): 34.8 µM
- GI50 (OVCAR-8 ovarian): 10.1 µM
- TGI (OVCAR-8 ovarian): 28.2 µM
- GI50 (PC-3 prostate): 10 µM
- TGI (PC-3 prostate): 25.1 µM
- GI50 (RPMI-8226 leukemia): 2.19 µM
- TGI (RPMI-8226 leukemia): 5.74 µM
- GI50 (RXF 393 renal): 1.45 µM
- TGI (RXF 393 renal): 2.79 µM
- GI50 (SF-268 CNS): 8.36 µM
- TGI (SF-268 CNS): 25.6 µM
- GI50 (SF-295 CNS): 17.6 µM
- TGI (SF-295 CNS): 39.2 µM
- GI50 (SF-539 CNS): 10.2 µM
- TGI (SF-539 CNS): 23 µM
- GI50 (SK-MEL-2 melanoma): 11.6 µM
- TGI (SK-MEL-2 melanoma): 24.6 µM
- GI50 (SK-MEL-28 melanoma): 2.46 µM
- TGI (SK-MEL-28 melanoma): 5.74 µM
- GI50 (SK-MEL-5 melanoma): 4.75 µM
- TGI (SK-MEL-5 melanoma): 17.3 µM
- GI50 (SK-OV-3 ovarian): 11.7 µM
- TGI (SK-OV-3 ovarian): 27.7 µM
- GI50 (SN12C renal): 5.68 µM
- TGI (SN12C renal): 25.4 µM
- GI50 (SNB-19 CNS): 15.7 µM
- TGI (SNB-19 CNS): 39.8 µM
- GI50 (SNB-75 CNS): 6.8 µM
- TGI (SNB-75 CNS): 34.5 µM
- GI50 (SR leukemia): 0.375 µM
- TGI (SR leukemia): 2.25 µM
- GI50 (SW-620 colon): 1.76 µM
- TGI (SW-620 colon): 3.87 µM
- GI50 (T-47D breast): 1.87 µM
- TGI (T-47D breast): 4.79 µM
- GI50 (TK-10 renal): 1.83 µM
- TGI (TK-10 renal): 3.27 µM
- GI50 (U251 CNS): 13 µM
- TGI (U251 CNS): 28.7 µM
- GI50 (UACC-257 melanoma): 1.64 µM
- TGI (UACC-257 melanoma): 3.17 µM
- GI50 (UACC-62 melanoma): 10.1 µM
- TGI (UACC-62 melanoma): 25.9 µM
- GI50 (UO-31 renal): 1.54 µM
- TGI (UO-31 renal): 2.97 µM
